From patent US12577248B2, “Substituted [1,2,4]triazolo[1,5-a]pyrazines as spleen tyrosine kinase inhibitors” (NANJING RUIJIE PHARMA CO., LTD., priority 2020, dated 2026)
Read-outs that look alike come from different tables or passages of the source.

Key:
SYK kinase = SYK kinase (Homo sapiens, UniProt P43405); assay: SYK kinase assay (HTRF KinEASE-TK); assay type: biochemical; conditions: read-out: Syk inhibition IC50
Experimental: A homogeneous time-resolved fluorescence (HTRF) assay was performed to assess the potential inhibitory effect of compounds on SYK kinase. The HTRF KinEASE-TK kit (Cisbio) was used. During the step, kinase will phosphorylate the substrate, and the resulting fluorescence signal is proportional to the phosphorylation level. The assay was performed in the following steps: First, the testing compounds were diluted 1:3 in succession in DMSO. The 1× kinase buffer contained 1 volume of 5× enzymatic buffer with 4 volumes of distilled water, 5 mM MgCl2, 1 mM MnCl2, and 1 mM DTT. The assays were assembled in 384 well plates (784075, Greiner) where 10 nl of compound solutions were added into each well, and the plates were centrifuged at 1000 g for 1 min. Then, 5 μl of 2×SYK in 1× kinase buffer were added to each well. The plates were centrifuged at 1000 g for 30 s and then incubated at room temperature for 10 min. The reaction was initiated by adding […] of premixed 2×TK-substrate-biotin and ATP mixture in 1× kinase buffer to the assay plates. The plates were centrifuged at 1000 g for 30 s and incubated at room temperature for 30 min. Phosphorylation was detected by adding 5 μl of 4×Sa-XL 665 in HTRF detection buffer into each well of the assay plates. The plates were centrifuged plates at 1000 g for 30 sec, and then incubated at room temperature for 1 h. Finally, the plates were read on an Envision 2104 plate reader (PerkinElmer) and the fluorescence signal was measured at 615 nm (Cryptate) and 665 nm (XL665).
A ratio (665/615 nm) was calculated for each well. The inhibition ratio was calculated as follow: […]
IC50 was calculated by fitting % Inhibition values and log of compound concentrations to nonlinear regression (dose response−variable slope) with GraphPad 6.0.

Ba/F3-TEL-SYK cells = molecular target: T1, Ba/F3-TEL-SYK cells (Homo sapiens, UniProt P43405); assay: Ba/F3-TEL-SYK cell-based assay (CellTiter-Glo proliferation); conditions: 72 hr, read-out: BaF3 Cell assay IC50
T1 construct: fused on or other part: N-terminal part of TEL (ETV6) with its oligomerising PNT/SAM domain, fused before the SYK part that carries the kinase domain; P41212 (Transcription factor ETV6)
Experimental: CellTiter-Glo® Luminescent Cell Viability Assay was used to determine the number of viable cells in culture based on quantitation of the ATP present, as an indicator of metabolically active cells. The assay was performed in the following steps: First, the testing compounds were dissolved in DMSO to make a stock solution. The stocks (10 mM) were then diluted to varying concentrations: […], 0.305 and 0.102 μM. An aliquot of 0.2 μl of diluted compounds were added to the 384 well assay plate. Second, added 40 μl of cell suspension with 800 Ba/F3-TEL-SYK cells into each well and incubated the plate at 37° C., 5% CO2 for 72 hr. Then, added 20 μl Cell Titer-Glo Reagent into each well of the cell culture plate. Mixed the contents for 2 min on an orbital shaker to lyse cells, and rest the plate at room temperature for 30 min. Finally, luminescence values were obtained using an Envision 2104 plate reader (PerkinElmer) and calculated the average data and Standard Deviation (SD) of DMSO and Reference (GS-9973, 1 μM) as high control and low control. To determine the IC50 value, fit the data using non-linear regression equation.

Row | IC50 (SYK kinase; class symbols) | GI50 (Ba/F3-TEL-SYK cells) | IC50 (SYK kinase; given as number) | Structure (SMILES)
1 | 500 to 5000 nM |  |  | COc1cc(Nc2nc(-c3ccc4c(C)c[nH]c4c3)cn3cnnc23)ccc1N1CCOCC1 [I47, N-(3-methoxy-4-morpholinophenyl)-6-(3-methyl-1H-indol-6-yl)-[1,2,4]triazolo[4,3-a]pyrazin-8-amine]
2 |  |  | > 10000 nM | c1cc(N2CCOCC2)ccc1Nc1nc(-c2ccc3cn[nH]c3c2)cn2cnnc12 [I48, 6-(1H-indazol-6-yl)-N-(4-morpholinophenyl)-[1,2,4]triazolo[4,3-a]pyrazin-8-amine]
3 | ≤ 50 nM | 500 to 5000 nM |  | Nc1cncc(-c2cn3ncnc3c(Nc3ccc(N4CCN(C5COC5)CC4)cc3)n2)n1 [I55, 6-(6-aminopyrazin-2-yl)-N-(4-(4-(oxetan-3-yl)piperazin-1-yl)phenyl)-[1,2,4]triazolo[1,5-a]pyrazin-8-amine]
4 | > 5000 nM |  |  | c1nc2c(Nc3ccc(N4CCC5(COC5)C4)cc3)nc(-c3ccc4cn[nH]c4c3)cn2n1 [I63, N-(4-(2-oxa-6-azaspiro[3.4]octan-6-yl)phenyl)-6-(1H-indazol-6-yl)-[1,2,4]triazolo[1,5-a]pyrazin-8-amine]
5 | > 5000 nM |  |  | c1nc2c(Nc3ccc(N4CCC5(COC5)C4)cc3)nc(-c3ccc4cc[nH]c4c3)cn2n1 [I64, N-(4-(2-oxa-6-azaspiro[3.4]octan-6-yl)phenyl)-6-(1H-indol-6-yl)-[1,2,4]triazolo[1,5-a]pyrazin-8-amine]
6 | > 5000 nM |  |  | c1cc(N2CCOCC2)ccc1Nc1nc(-c2ccc3[nH]ncc3c2)cn2cnnc12 [I65, 6-(1H-indazol-5-yl)-N-(4-morpholinophenyl)-[1,2,4]triazolo[4,3-a]pyrazin-8-amine]
7 | > 5000 nM |  |  | c1cc2cc(-c3cn4cnnc4c(Nc4ccc(N5CCOCC5)cc4)n3)ccc2[nH]1 [I66, 6-(1H-indol-5-yl)-N-(4-morpholinophenyl)-[1,2,4]triazolo[4,3-a]pyrazin-8-amine]
8 | 500 to 5000 nM |  |  | COc1cc(Nc2nc(-c3ccc4[nH]ncc4c3)cn3cnnc23)ccc1N1CCOCC1 [I67, 6-(1H-indazol-5-yl)-N-(3-methoxy-4-morpholinophenyl)-[1,2,4]triazolo[4,3-a]pyrazin-8-amine]
9 | > 5000 nM |  |  | COc1cc(Nc2nc(-c3ccc4[nH]ccc4c3)cn3cnnc23)ccc1N1CCOCC1 [I68, 6-(1H-indol-5-yl)-N-(3-methoxy-4-morpholinophenyl)-[1,2,4]triazolo[4,3-a]pyrazin-8-amine]
10 | 50 to 500 nM |  |  | CC(C)N1C[C@@H]2C[C@@H]1CN2c1ccc(Nc2nc(-c3ccc4cn[nH]c4c3)cn3ncnc23)cc1 [I71, 6-(1H-indazol-6-yl)-N-(4-((1S,4R)-5-isopropyl-2,5-diazabicyclo[2.2.1]heptan-2-yl)phenyl)-[1,2,4]triazolo[1,5-a]pyrazin-8-amine]
11 | 50 to 500 nM |  |  | c1nc2c(Nc3ccc(N4CCOCC4)c(OC4CC4)c3)nc(-c3ccc4cn[nH]c4c3)cn2n1 [I74, N-(3-cyclopropoxy-4-morpholinophenyl)-6-(1H-indazol-6-yl)-[1,2,4]triazolo[1,5-a]pyrazin-8-amine]
12 | 500 to 5000 nM |  |  | c1nc2c(Nc3ccc(N4CC5CC4CN5C4COC4)c(OC4CC4)c3)nc(-c3ccc4cc[nH]c4c3)cn2n1 (centres unmarked) [I80, N-(3-cyclopropoxy-4-(5-(oxetan-3-yl)-2,5-diazabicyclo[2.2.1]heptan-2-yl)phenyl)-6-(1H-indol-6-yl)-[1,2,4]triazolo[1,5-a]pyrazin-8-amine]

Continued, compound first:

Row | Structure (SMILES) | IC50 (SYK kinase; class symbols) | GI50 (Ba/F3-TEL-SYK cells) | IC50 (SYK kinase; given as number)
13 | COc1ccc(Nc2nc(-c3ccc4cn[nH]c4c3)cn3ncnc23)cc1OC [I3, N-(3,4-dimethoxyphenyl)-6-(1H-indazol-6-yl)-[1,2,4]triazolo[1,5-a]pyrazin-8-amine] | ≤ 50 nM | ≤ 50 nM | 
14 | O=C(O)c1ccc(NC(=O)c2cccc(-c3cn4ncnc4c(Nc4ccc(N5CCOCC5)cc4)n3)c2)cc1 [I7, 4-(3-(8-((4-morpholinophenyl)amino)-[1,2,4]triazolo[1,5-a]pyrazin-6-yl)benzamido)benzoic acid] | ≤ 50 nM | > 5000 nM | 
15 | COc1cc(Nc2nc(-c3ccc4cn[nH]c4c3)cn3ncnc23)ccc1N1CCN(C)CC1 [I12, 6-(1H-indazol-6-yl)-N-(3-methoxy-4-(4-methylpiperazin-1-yl)phenyl)-[1,2,4]triazolo[1,5-a]pyrazin-8-amine] | ≤ 50 nM | ≤ 50 nM | 
16 | CCN1CCN(c2ccc(Nc3nc(-c4ccc5cn[nH]c5c4)cn4ncnc34)cc2OC)CC1 [I16, N-(4-(4-ethylpiperazin-1-yl)-3-methoxyphenyl)-6-(1H-indazol-6-yl)-[1,2,4]triazolo[1,5-a]pyrazin-8-amine] | ≤ 50 nM | ≤ 50 nM | 
17 | COc1cc(Nc2nc(-c3ccc4cn[nH]c4c3)cn3ncnc23)ccc1N1CCN(C(C)C)CC1 [I17, 6-(1H-indazol-6-yl)-N-(4-(4-isopropylpiperazin-1-yl)-3-methoxyphenyl)-[1,2,4]triazolo[1,5-a]pyrazin-8-amine] | ≤ 50 nM | 50 to 500 nM | 
18 | COCCN1CCN(c2ccc(Nc3nc(-c4ccc5cn[nH]c5c4)cn4ncnc34)cc2OC)CC1 [I18, 6-(1H-indazol-6-yl)-N-(3-methoxy-4-(4-(2-methoxyethyl)piperazin-1-yl)phenyl)-[1,2,4]triazolo[1,5-a]pyrazin-8-amine] | ≤ 50 nM | ≤ 50 nM | 
19 | FC(F)Oc1cc(Nc2nc(-c3ccc4cn[nH]c4c3)cn3ncnc23)ccc1N1CCOCC1 [I21, N-(3-(difluoromethoxy)-4-morpholinophenyl)-6-(1H-indazol-6-yl)-[1,2,4]triazolo[1,5-a]pyrazin-8-amine] | ≤ 50 nM | 50 to 500 nM | 
20 | CC1(O)CCN(c2ccc(Nc3nc(-c4ccc5cn[nH]c5c4)cn4ncnc34)cc2)CC1 [I23, 1-(4-((6-(1H-indazol-6-yl)-[1,2,4]triazolo[1,5-a]pyrazin-8-yl)amino)phenyl)-4-methylpiperidin-4-ol] | ≤ 50 nM | 50 to 500 nM | 
21 | COc1cc(Nc2nc(-c3ccc4cn[nH]c4c3)cn3ncnc23)ccc1N1CCS(=O)(=O)CC1 [I24, 4-(4-((6-(1H-indazol-6-yl)-[1,2,4]triazolo[1,5-a]pyrazin-8-yl)amino)-2-methoxyphenyl)thiomorpholine 1,1-dioxide] | ≤ 50 nM | ≤ 50 nM | 
22 | O=S1(=O)CCN(c2ccc(Nc3nc(-c4ccc5cn[nH]c5c4)cn4ncnc34)cc2)CC1 [I25, 4-(4-((6-(1H-indazol-6-yl)-[1,2,4]triazolo[1,5-a]pyrazin-8-yl)amino)phenyl)thiomorpholine 1,1-dioxide] | ≤ 50 nM | 50 to 500 nM | 
23 | COc1cc(Nc2nc(-c3ccc4c(c3)OC(C)(C)C(=O)N4)cn3ncnc23)ccc1N1CCOCC1 [I26, 7-(8-((3-methoxy-4-morpholinophenyl)amino)-[1,2,4]triazolo[1,5-a]pyrazin-6-yl)-2,2-dimethyl-2H-benzo[b][1,4]oxazin-3(4H)-one] | 50 to 500 nM | 50 to 500 nM | 
24 | COc1cc(Nc2nc(-c3ccc4c(c3)OCC(=O)N4)cn3ncnc23)ccc1N1CCOCC1 [I28, 7-(8-((3-methoxy-4-morpholinophenyl)amino)-[1,2,4]triazolo[1,5-a]pyrazin-6-yl)-2H-benzo[b][1,4]oxazin-3(4H)-one] | ≤ 50 nM | 50 to 500 nM | 
25 | O=C1COc2cc(-c3cn4ncnc4c(Nc4ccc(N5CCOCC5)cc4)n3)ccc2N1 [I29, 7-(8-((4-morpholinophenyl)amino)-[1,2,4]triazolo[1,5-a]pyrazin-6-yl)-2H-benzo[b][1,4]oxazin-3(4H)-one] | ≤ 50 nM | 50 to 500 nM | 
26 | Fc1n[nH]c2cc(-c3cn4cnnc4c(Nc4ccc(N5CCOCC5)cc4)n3)ccc12 [I45, 6-(3-fluoro-1H-indazol-6-yl)-N-(4-morpholinophenyl)-[1,2,4]triazolo[4,3-a]pyrazin-8-amine] | > 5000 nM |  | 
27 | COc1cc(Nc2nc(-c3ccc4c(C)n[nH]c4c3)cn3cnnc23)ccc1N1CCOCC1 [I46, N-(3-methoxy-4-morpholinophenyl)-6-(3-methyl-1H-indazol-6-yl)-[1,2,4]triazolo[4,3-a]pyrazin-8-amine] | 500 to 5000 nM |  | 
